Assays:
Type in all cases: physicochemical
[1] = Effect of stent expansion on paclitaxel content of spin-coated stents (HPLC); settings: spin-coated 12,000 RPM two seconds, 44 mg/ml ethanolic paclitaxel
Source text: After a stent is crimped onto a catheter as in example 4, it is ready for deployment in the body. The stent is properly positioned with a catheter, and is then expanded, for example by inflation of a balloon tip around which the stent is mounted. The balloon inflation expands the stent and forces it into proper position in the wall of the hollow organ. This has an additional physical impact on the stent, and has the potential to further degrade its coating.

[2] = Effect of crimping on amount of paclitaxel on spin-coated stents (HPLC)
Source text: Each stent was then removed from the reservoir, shaken briskly, and allowed to dry.

[3] = Amount of paclitaxel deposited on Palmaz-Schatz stents, manual coating method (HPLC)
Method: In this example, Palmaz-Schatz stents were coated with paclitaxel using a manual method. The amount of paclitaxel deposited was then determined.
Each stent was then removed from the reservoir, shaken briskly, and allowed to dry. […] The solvent system consisted of 45% acetonitrile and 55% water delivered by a pair of Gilson 305/306 pumps with a flow rate of 1.5 ml/minute.

[4] = Effect of crimping on amount of paclitaxel on manually coated stents (HPLC); settings: manual coating, after crimping
Source text: Prior to being deployed inside a blood vessel, some vascular stents must be crimped onto a balloon-tipped catheter. Once the stent is positioned on the catheter, the catheter-stent assembly is advanced in the blood vessel to the site of obstruction. The balloon is then expanded, which deploys the stent in its proper position.
Since the manual coating method leads to uneven, fragile coating (see Examples 1-3), it seemed likely that the process of crimping would exacerbate the problem of flaking and drug loss. To demontstrate this problem, the amount of paclitaxel on stents before and after crimping was determined. […] Each stent was then removed from the reservoir, shaken briskly, and allowed to dry.

paclitaxel amount, expanded stent ([1]; crimp-mounted, expanded in water): 26.9 µg
mean paclitaxel amount, unexpanded stents ([1]; unexpanded): 32.8±5.9 μg/stent
Amount of drug—crimped (mean ± standard deviation) ([2]; paclitaxel 18 mg/ml): 6.4 ± 2.1 µg
Amount of drug—crimped (mean ± standard deviation) ([2]; paclitaxel 28 mg/ml): 12.6 ± 1.2 µg
Amount of drug deposited (mean ± standard deviation) ([3]; paclitaxel 13 mg/ml in 95% ethanol): 19.5 ± 7.7 µg
Amount of drug deposited (mean ± standard deviation) ([3]; paclitaxel 27 mg/ml in 95% ethanol): 59.8 ± 17.6 µg
Amount of drug deposited (mean ± standard deviation) ([3]; paclitaxel 37 mg/ml in 95% ethanol): 80.4 ± 27.7 µg
Amount of drug deposited (mean ± standard deviation) ([3]; paclitaxel 42 mg/ml in 95% ethanol): 141.3 ± 43.0 µg
Amount of drug deposited (mean ± standard deviation) ([3]; paclitaxel 66 mg/ml in 95% ethanol): 198.3 ± 72.0 µg
Amount of drug—crimped (mean ± standard deviation) ([4]; paclitaxel 37 mg/ml): 57.9 ± 33.0 µg
Amount of drug—crimped (mean ± standard deviation) ([4]; paclitaxel 42 mg/ml): 127.1 ± 34.6 µg
Amount of drug—crimped (mean ± standard deviation) ([4]; paclitaxel 66 mg/ml): 106.3 ± 53.8 µg
SMILES: CC(=O)O[C@H]1C(=O)[C@@]2(C)[C@H]([C@H](OC(=O)c3ccccc3)[C@]3(O)C[C@H](OC(=O)[C@H](O)[C@@H](NC(=O)c4ccccc4)c4ccccc4)C(C)=C1C3(C)C)[C@]1(OC(C)=O)CO[C@@H]1C[C@@H]2O [Paclitaxel, paclitaxel]

— patent publication US20030215564A1, “Method and apparatus for coating an endoprosthesis” (priority 2002, published 2003)
